Measurements reported in PubChem BioAssay AID810 (The Scripps Research Institute Molecular Screening Center, 2007).
The source made the active and inactive calls. How the calls were made is not given here.

Target: Focal adhesion kinase 1 (Homo sapiens) (UniProt Q05397)
Assay: FAK kinase inhibitor potency, dose response, biochemical (AID 810)
Settings: Recombinant FAK kinase activity inhibition assay

Sequence of Focal adhesion kinase 1 (Homo sapiens) (Q05397 whole entry, looked up): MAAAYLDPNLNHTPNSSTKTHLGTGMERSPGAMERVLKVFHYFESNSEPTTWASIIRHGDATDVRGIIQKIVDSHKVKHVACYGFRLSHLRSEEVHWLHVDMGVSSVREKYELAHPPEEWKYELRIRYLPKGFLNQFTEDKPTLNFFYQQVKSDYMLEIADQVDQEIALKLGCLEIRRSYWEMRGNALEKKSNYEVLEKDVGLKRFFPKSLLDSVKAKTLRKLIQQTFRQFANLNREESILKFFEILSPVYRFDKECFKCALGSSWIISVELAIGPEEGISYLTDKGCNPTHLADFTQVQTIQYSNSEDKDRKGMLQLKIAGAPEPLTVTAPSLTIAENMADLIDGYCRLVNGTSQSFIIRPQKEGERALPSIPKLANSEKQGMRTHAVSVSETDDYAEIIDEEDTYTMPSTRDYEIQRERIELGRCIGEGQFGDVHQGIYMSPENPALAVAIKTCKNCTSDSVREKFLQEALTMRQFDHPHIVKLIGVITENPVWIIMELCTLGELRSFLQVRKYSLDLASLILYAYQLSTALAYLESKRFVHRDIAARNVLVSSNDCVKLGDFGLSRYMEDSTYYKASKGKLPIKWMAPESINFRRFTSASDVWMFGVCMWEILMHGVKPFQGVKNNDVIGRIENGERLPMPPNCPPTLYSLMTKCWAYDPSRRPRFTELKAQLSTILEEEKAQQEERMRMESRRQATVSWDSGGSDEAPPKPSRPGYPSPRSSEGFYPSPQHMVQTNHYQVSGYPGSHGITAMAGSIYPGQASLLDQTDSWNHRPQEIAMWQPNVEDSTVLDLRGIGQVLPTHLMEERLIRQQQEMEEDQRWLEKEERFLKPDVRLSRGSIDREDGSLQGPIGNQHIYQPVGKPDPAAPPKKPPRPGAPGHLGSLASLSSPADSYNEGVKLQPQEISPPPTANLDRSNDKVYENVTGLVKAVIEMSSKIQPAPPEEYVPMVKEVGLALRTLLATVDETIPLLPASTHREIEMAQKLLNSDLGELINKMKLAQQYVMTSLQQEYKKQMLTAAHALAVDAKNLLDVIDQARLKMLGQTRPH

Structure (SMILES) | IC50
O=c1c(/C=N/O)c(Nc2ccccc2)nc2ccccn12 | inactive
O=C1C(c2ccnc3ccccc23)=C(O)c2ccccc21 | 5.64 µM
CCOCCOC(=O)C1=C(C)NC2=C(C(=O)CC(c3cccs3)C2)C1c1ccsc1 (stereo unspecified) | > 70 µM (inactive)
CCOC(=O)C1=C(c2ccccc2)OC(N)=C(C#N)C1C1CCCCC1 (stereo unspecified) | > 70 µM (inactive)
CCOC(=O)c1sc2c(c1C)C(c1cccs1)C1=C(CCCC1=O)N2 (stereo unspecified) | > 70 µM (inactive)
COc1cc(N=Cc2c(O)[nH]c3ccccc23)cc(OC)c1OC | 3.13 µM
COC(=O)C1=C(C)NC2=C(C(=O)CC(c3cccs3)C2)C1c1ccsc1 (stereo unspecified) | > 70 µM (inactive)
COC(=O)c1cccc2c1-c1ccccc1/C2=N/O | 9.43 µM
O=[N+]([O-])c1cc(/C=N\Nc2nccs2)ccc1O | 5.82 µM
Cc1nn2c(c1-c1ccccc1)NC1=C(C(=O)CCC1)C2c1ccccc1 (stereo unspecified) | > 70 µM (inactive)

The next lines start with the values.

IC50 | Structure (SMILES)
inactive | CCOC(=O)c1cccc2c1-c1ccccc1/C2=N/O
> 70 µM (inactive) | CCOC(=O)C1=C(c2ccccc2)OC(N)=C(C#N)C1c1cccs1 (stereo unspecified)
inactive | CN1CCc2c(sc3ncn4nc(-c5ccccc5O)nc4c23)C1
inactive | N#Cc1ccccc1/C=N/Nc1nc(-c2ccccc2)c2cc(Cl)ccc2n1
> 70 µM (inactive) | COCCOC(=O)C1=C(C)NC2=C(C(=O)CC(c3cccs3)C2)C1c1ccsc1 (stereo unspecified)
inactive | COc1cccc(CN2CC(O)=C(c3nc(-c4ccc(Cl)cc4)cs3)C2=N)c1
